Here are results for 2 compounds from patent US12091601B2 (priority 2020, dated 2024).

Counter-ions that a name gives are not always drawn.

Series [1] is described as follows: Inhibition and re-activation of HF: quartz dissolution. The note with it: by themselves. As for the experimental part: HF was inhibited by the addition of monoethanolamine (MEA), until no quartz (SiO2) was dissolved. A molar ratio of 1 MEA to HF or greater is necessary to inhibit HF's ability to dissolve quartz, and a ratio of 1.1 will used in further testing to provide a reasonable safety margin.
The inhibited HF solution can regain its quartz dissolving potential through the addition of an acidic solution, such as HCl.
To evaluate the performance of mud acids created with acid compositions comprising HCl:MEA in ratios of 4.4:1; 6.3:1; and 11.3:1, inhibited HF mud acids were prepared using HCl and acid compositions comprising HCl:MEA in ratios of 4.4:1; and 11.3:1 with various amount of free HCl (6 to 12%).

The conditions of series [2]: cited from earlier work.

Take `Cl` [HCl]: the quartz dissolved entry in series [1] is recorded as “essentially no quartz”.
For `F[Si-2](F)(F)(F)(F)F.[Na+].[Na+]` [Na2SiF6], the “concentration above which precipitation occurs / solubility” value in series [2] was 6400 µg/mL.
